Results published in publication PMC7320011, “Rationally designed ruthenium complexes for 1- and 2-photon photodynamic therapy” (Nature Communications, 2020).
Read-outs that look alike come from different tables or passages of the source.

Key:
[1] = Two-photon absorption cross section; type: physicochemical; conditions: dichloromethane
Experimental: The two-photon absorption cross section spectra of the sample was determined upon direction comparison to Rhodamine B. The sample was irradiated with an OpoletteTM 355II (pulse width ≤ 100 fs, 80 MHz repetition rate, Spectra Physics Inc.) laser. The experimental excitation and detection conditions were conducted with negligible reabsorption processes, which could affect two-photon absorption measurements. The quadratic dependence of the two-photon induced luminescence intensity on the excitation power was verified at an excitation wavelength of 800 nm. The two-photon absorption cross section was calculated using the following equation:1 σ2,sample=σ2,reference×Φreference×creference×Isample×nsample/Φsample×csample×Ireference×nreference,
σ2 = two-photon cross section, Φ = luminescence quantum yield, c = concentration, I = integrated luminescence intensity, n = refractive index

[2] = Emission and luminescence quantum yield; type: physicochemical; conditions: acetonitrile
Experimental: The absorption spectra of the sample was measured with a SpectraMax M2 Spectrometer (Molecular Devices). For the measurements of the emission, the sample was irradiated at 355 nm with a NT342B Nd-YAG pumped optical parametric oscillator (Ekspla). The emission was focused at right angle to the excitation pathway and directed to a Princeton Instruments Acton SP-2300i monochromator. The signal was detected with a XPI-Max 4 CCD camera (Princeton Instruments).
The sample was prepared in an acetonitrile solution with an absorption of 0.1 at 355 nm. The sample was irradiated at 355 nm with a NT342B Nd-YAG pumped optical parametric oscillator (Ekspla). The emission was focused at right angle to the excitation pathway and directed to a Princeton Instruments Acton SP-2300i monochromator. The signal was detected with a XPI-Max 4 CCD camera (Princeton Instruments). The luminescence quantum yields were determined by comparison with the reference [Ru(2,2′-bipyridine)3]Cl2 in acetonitrile (Φem = 5.9%)[58] applying the following formula:2 Φem,sample=Φem,reference×Freference/Fsample×Isample/Ireference×nsample/nreference^2, 3 F=1−10^-A. Φem = luminescence quantum yield, F = fraction of light absorbed, I = integrated emission intensities, n = refractive index, A = absorbance of the sample at irradiation wavelength.

Excited state lifetime = type: physicochemical; conditions: for τ air, excited state lifetime: air saturated acetonitrile; for τ degassed, excited state lifetime: degassed acetonitrile
Experimental: The sample was prepared in an air saturated as well as a degassed acetonitrile solution with an absorption of 0.2 at 355 nm. The sample was irradiated at 355 nm with a NT342B Nd-YAG pumped optical parametric oscillator (Ekspla). The emission was focused at right angle to the excitation pathway and directed to a Princeton Instruments Acton SP-2300i monochromator. The signal was detected with a R928 photomultiplier tube (Hamamatsu).

[3] = Singlet oxygen quantum yield, direct evaluation (1O2 phosphorescence); type: physicochemical
Experimental: Direct evaluation: the sample was prepared in an air-saturated acetonitrile or deuterated water solution with an absorption of 0.2 at 450 nm. The sample was irradiated at 450 nm with a mounted M450LP1 LED (Thorlabs), whose light was focused with aspheric condenser lenses. Using a T-Cube LED Driver (Thorlabs), the intensity of the irradiation was varied and monitored with an optical power and energy meter. The emission was focused at right angle to the excitation pathway and directed to a Princeton Instruments Acton SP-2300i monochromator. To cut off light at wavelengths shorter than 850 nm, a longpass glass filter was placed in front of the monochromator entrance slit. The signal was detected with an EO-817L IR-sensitive liquid-nitrogen cooled germanium diode detector (North Coast Scientific Corp.). The luminescence signal, centered at 1270 nm, was measured from 1100 to 1400 nm. The obtained data were analyzed upon plotting the integrated luminescence peaks against the percentage of the irradiation intensity. The slope of the linear regression was calculated and compared with the reference Rose Bengal (Φ = 76%)[59]. The absorption of the sample was corrected with an absorption correction factor. The singlet oxygen quantum yields were calculated using the following formula:4 Φsample=Φreference×Ssample/Sreference×Ireference/Isample, 5 I=I0×1−10^-A.
Φ = singlet oxygen quantum yield, S = slope of the linear regression of the plot of the areas of the singlet oxygen luminescence peaks against the irradiation intensity, I = absorption correction factor, I0 = light intensity of the irradiation source, and A = absorption of the sample at irradiation wavelength.

[4] = Singlet oxygen quantum yield, indirect evaluation (1O2 scavenger absorbance); type: physicochemical
Experimental: Indirect evaluation: measurement in acetonitrile: the sample was prepared in an air-saturated acetonitrile solution with an absorption of 0.2 at the irradiation wavelength, N,N-dimethyl-4-nitrosoaniline aniline (RNO, 24 µM) and imidazole (12 mM). Measurement in PBS buffer: the sample was prepared in an air-saturated PBS solution containing the complex with an absorption of 0.2 at the irradiation wavelength, N,N-dimethyl-4-nitrosoaniline aniline (RNO, 20 µM) and histidine (10 mM). The samples were irradiated for various time points with an Atlas Photonics LUMOS BIO irradiator. The absorption of the samples was constantly monitored with a SpectraMax M2 Microplate Reader (Molecular Devices). The difference in absorption (A0 − A) at 420 nm for the measurement in acetonitrile or at 440 nm for the measurement in PBS was determined. The difference in absorption was then plotted against the irradiation times and the slope of the linear regression calculated. The absorption of the sample was corrected with an absorption correction factor. The singlet oxygen quantum yields were calculated using the same formulas as used for the direct evaluation.

[5] = Distribution coefficient (shake-flask, octanol/PBS); type: physicochemical; conditions: ICP-MS
Experimental: Using the “shake-flask” method, the distribution coefficient between the PBS and octanol phase of the sample was determined. The PBS and octanol phases were previously saturated in each other. The sample was dissolved in the phase, which is dissolving best the compound. This solution was added to an equal volume of the other phase and mixed at 190 rpm overnight with a sample mixer. Following this, the solutions were equilibrated for 4 h. The phases were carefully separated from each other. The amount of the sample in each phase was determined by ICP-MS. The evaluation was repeated three times and the ratio between the organic and aqueous phase determined.

[6] = test system: noncancerous retinal pigment epithelium (RPE-1) cells
Experimental: (§1) A total of 4 × 10^3 cells were seeded on 96-well plates and allowed to adhere overnight. The cells were treated with increasing concentrations of the sample diluted in cell media achieving a total volume of 200 μL. The cells were incubated with the sample for 8 h and, after this time, the medium refreshed. To study the phototoxic effect of the sample, the cells were exposed to 480 nm (spectral half-width: 20 nm, 10 min, 5.2 mW cm^−2, 3.1 J cm^−2) or 540 nm (spectral half-width: 30 nm, 40 min, 4.0 mW cm^−2, 9.5 J cm^−2) light using an Atlas Photonics LUMOS BIO irradiator. To study the dark cytotoxicity of the sample, the cells were not irradiated and the medium exchanged. The cells were grown for an additional 40 h at 37 °C. After this time, the medium was replaced with fresh medium containing resazurin with a final concentration of 0.2 mg mL^−1. The cells were incubated for 4 h and the amount of the fluorescent product resorufin determined (λex = 540 nm, λem = 590 nm) with a SpectraMax M2 Microplate Reader (Molecular Devices). The obtained data was analyzed with the GraphPad Prism software.

[7] = test system: mouse colon carcinoma (CT-26) cells
Experimental: as §1

[8] = test system: human glioblastoma astrocytoma (U373) cells; test: (Photo-)cytotoxicity on 2D cell monolayers, U373; conditions: for PI (480 nm): U373, dark vs 480 nm; for PI (540 nm): U373, dark vs 540 nm; for IC50: 1-3 as chloride salts;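 on all read-outs here: Resazurin-to-resorufin fluorescence viability readout, 8 h compound exposure then medium change, light dose 3.1 J cm^−2 at 480 nm or 9.5 J cm^−2 at 540 nm, analysed 40 h later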
Experimental: as §1

[9] = test system: mouse colon carcinoma (CT-26) cells; test: (Photo-)cytotoxicity on 2D cell monolayers, CT-26; conditions: for PI (480 nm): CT-26, dark vs 480 nm; for PI (540 nm): CT-26, dark vs 540 nm; for IC50: 1-3 as chloride salts
Experimental: as §1

[10] = read-out: IC50 480 nm (10 min, 3.1 J cm-2), U373, 480 nm
[11] = read-out: IC50 dark, U373, dark
[12] = read-out: IC50 540 nm (40 min, 9.5 J cm-2), CT-26, 540 nm
[13] = read-out: IC50 dark, CT-26, dark

| Compound | σ2, 2P absorption cross section [1] | Φem, luminescence quantum yield [2] | λem, emission maximum [2] | τ air, excited state lifetime (Excited state lifetime) | τ degassed, excited state lifetime (Excited state lifetime) | Singlet oxygen quantum yield, Direct 450 nm CH3CN [3] | Singlet oxygen quantum yield, Indirect 450 nm CH3CN [4] | Singlet oxygen quantum yield, Indirect 450 nm PBS [4] | Singlet oxygen quantum yield, Indirect 540 nm CH3CN [4] | Singlet oxygen quantum yield, Indirect 540 nm PBS [4] | logD (octanol/PBS) [5] | IC50 [6] | IC50 [7] | PI (480 nm) [8] | PI (540 nm) [8] | IC50 [8, 10] | IC50 [8, 11] | PI (480 nm) [9] | PI (540 nm) [9] | IC50 [9, 12] | also measured |
| --- | --- | --- | --- | --- | --- | --- | --- | --- | --- | --- | --- | --- | --- | --- | --- | --- | --- | --- | --- | --- | --- |
| CN(C)c1ccc(/C=C/c2ccnc(-c3cc(/C=C/c4ccc(N(C)C)cc4)ccn3)c2)cc1.CN(C)c1ccc(/C=C/c2ccnc(-c3cc(/C=C/c4ccc(N(C)C)cc4)ccn3)c2)cc1.F[P-](F)(F)(F)(F)F.F[P-](F)(F)(F)(F)F.[Ru+2].c1ccc(-c2ccccn2)nc1 [compound 4, [Ru(2,2′-bipyridine)((E,E′)-4,4′-Bis[p-(N,N-dimethylamino)styryl]-2,2′-bipyridine)2][PF6]2] | 838 GM | 0.4% | 703 nm | 69 ns | 417 ns | 34% | 40% | 2% | 37% | 3% | +1.7 ± 0.3 | 10.9 µM | 7.3 µM | > 7.0 | > 5.3 | 14.3 µM | > 100 µM | > 13.7 | > 10.4 | 9.6 µM | IC50 [9, 13]: > 100 µM |
| COc1ccc(/C=C/c2ccnc(-c3cc(/C=C/c4ccc(OC)cc4)ccn3)c2)cc1.COc1ccc(/C=C/c2ccnc(-c3cc(/C=C/c4ccc(OC)cc4)ccn3)c2)cc1.F[P-](F)(F)(F)(F)F.F[P-](F)(F)(F)(F)F.[Ru+2].c1ccc(-c2ccccn2)nc1 [compound 5, [Ru(2,2′-bipyridine)((E,E′)-4,4′-Bis[p-methoxystyryl]-2,2′-bipyridine)2][PF6]2] | 313 GM | 1.4% | 674 nm | 36 ns | 231 ns | 54% | 51% | 8% | 46% | 6% | +1.4 ± 0.2 | 10.2 µM | 5.1 µM | > 6.5 | > 5.6 | 15.3 µM | > 100 µM | > 19.6 | > 16.1 | 6.2 µM | IC50 [9, 13]: > 100 µM |
| CN(C)c1ccc(/C=C/c2ccnc(-c3cc(/C=C/c4ccc(N(C)C)cc4)ccn3)c2)cc1.F[P-](F)(F)(F)(F)F.F[P-](F)(F)(F)(F)F.[Ru+2].c1ccc(-c2ccccn2)nc1.c1ccc(-c2ccccn2)nc1 [compound 6, [Ru(2,2′-bipyridine)2((E,E′)-4,4′-Bis[p-(N,N-dimethylamino)styryl]-2,2′-bipyridine)][PF6]2] | 349 GM | 0.5% | 697 nm | 54 ns | 405 ns | 46% | 53% | 2% | 38% | 2% | +0.7 ± 0.2 | 7.3 µM | 2.4 µM | > 12.0 | > 9.3 | 8.3 µM | > 100 µM | > 41.7 | > 32.3 | 3.1 µM | IC50 [9, 13]: > 100 µM |
| COc1ccc(/C=C/c2ccnc(-c3cc(/C=C/c4ccc(OC)cc4)ccn3)c2)cc1.COc1ccc(/C=C/c2ccnc(-c3cc(/C=C/c4ccc(OC)cc4)ccn3)c2)cc1.COc1ccc(/C=C/c2ccnc(-c3cc(/C=C/c4ccc(OC)cc4)ccn3)c2)cc1.F[P-](F)(F)(F)(F)F.F[P-](F)(F)(F)(F)F.[Ru+2] [compound 3, [Ru((E,E′)-4,4′-Bis[p-methoxystyryl]-2,2′-bipyridine)3][PF6]2] | 573 GM | 1.1% | 682 nm | 76 ns | 338 ns | 52% | 48% | 6% | 49% | 5% | +2.3 ± 0.3 | 53.6 µM | 19.3 µM | > 2.4 | > 1.9 | 41 µM | > 100 µM | > 5.2 | > 4.3 | 23 µM | IC50 [9, 13]: > 100 µM |
